Assay results reported in PubChem BioAssay AID248 (DTP/NCI, 2004).
Several values for one entry are separate records, joined by “and”; a condition that tells them apart may be missing. Identical values can stand only once. Toxic doses and inconclusive results are not listed. Cut-off read from the data, not from the text of the source: active = T/C of 150% or more; inactive = T/C below 125%.

Tested on: L1210 leukemia ip in BDF1 mice, survival T/C
Experiment: NCI In Vivo Anticancer Drug Screen. Data for tumor model L1210 Leukemia (intraperitoneal) in B6D2F1 (BDF1) mice
Details: endpoint: mean survival time, higher = longer survival
In short: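 Transplanted-tumor mice were given test agent; controls received vehicle only. Survival readings from the two groups were divided (treated over control).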

[1] = dose: 100.0 mg/kg/injection, schedule: Q01DX009 (ip), vehicle: Klucel (hydroxypropylcellulose) (HPC)
[2] = dose: 100.0 mg/kg/injection, schedule: Q04DX003 (ip), vehicle: Klucel (hydroxypropylcellulose) (HPC)
[3] = dose: 200.0 mg/kg/injection, schedule: Q04DX003 (ip), vehicle: Klucel (hydroxypropylcellulose) (HPC)
[4] = dose: 400.0 mg/kg/injection, schedule: Q04DX002 (ip), vehicle: saline with Tween-80
[5] = dose: 200.0 mg/kg/injection, schedule: Q01DX009 (ip), vehicle: Klucel (hydroxypropylcellulose) (HPC)
[6] = dose: 400.0 mg/kg/injection, schedule: Q01DX009 (ip), vehicle: Klucel (hydroxypropylcellulose) (HPC)
[7] = dose: 400.0 mg/kg/injection, schedule: Q04DX003 (ip), vehicle: Klucel (hydroxypropylcellulose) (HPC)
[8] = dose: 100.0 mg/kg/injection, schedule: Q04DX002 (ip), vehicle: saline with Tween-80
[9] = dose: 200.0 mg/kg/injection, schedule: Q04DX002 (ip), vehicle: saline with Tween-80
[10] = dose: 100.0 mg/kg/injection, schedule: Q01DX001 (ip), vehicle: saline
[11] = dose: 100.0 mg/kg/injection, schedule: Q01DX009 (ip), vehicle: saline
[12] = dose: 100.0 mg/kg/injection, schedule: Q04DX003 (ip), vehicle: saline
[13] = dose: 200.0 mg/kg/injection, schedule: Q01DX001 (ip), vehicle: saline

Measured: T/C

CC1(C)OC2C(CO)OC(n3cnc4c(N)ncnc43)C2O1 (stereo unspecified)
inactive: dose: 25.0 mg/kg/injection, schedule: Q01DX009 (ip), vehicle: Klucel (hydroxypropylcellulose) (HPC) 103 % of control | dose: 50.0 mg/kg/injection, schedule: Q01DX009 (ip), vehicle: Klucel (hydroxypropylcellulose) (HPC) 98 % of control | [1] 100 % of control | [2] 103 % of control | [3] 103 % of control

CCN(CC)CCCC(C)Nc1cc(/C=C/c2ccc(Cl)cc2)nc2ccc(N(C)C)cc12 (stereo unspecified)
inactive: dose: 3.12 mg/kg/injection, schedule: Q01DX009 (ip), vehicle: saline with Tween-80 95 % of control | dose: 6.25 mg/kg/injection, schedule: Q01DX009 (ip), vehicle: saline with Tween-80 97 % of control | dose: 12.5 mg/kg/injection, schedule: Q01DX009 (ip), vehicle: saline with Tween-80 95 % of control and 98 % of control

C=CCN(CC=C)c1nc(Oc2ccccc2)nc(Oc2ccccc2)n1
inactive: dose: 25.6 mg/kg/injection, schedule: Q04DX002 (ip), vehicle: saline with Tween-80 104 % of control | dose: 64.0 mg/kg/injection, schedule: Q04DX002 (ip), vehicle: saline with Tween-80 101 % of control | dose: 100.0 mg/kg/injection, schedule: Q04DX003 (ip), vehicle: saline with Tween-80 89 % of control | dose: 160.0 mg/kg/injection, schedule: Q04DX002 (ip), vehicle: saline with Tween-80 93 % of control | dose: 200.0 mg/kg/injection, schedule: Q04DX003 (ip), vehicle: saline with Tween-80 92 % of control | [4] 89 % of control | dose: 400.0 mg/kg/injection, schedule: Q04DX003 (ip), vehicle: saline with Tween-80 93 % of control

Cc1ccc(NC(=S)NC(=O)c2ccco2)cc1Cl
inactive: [1] 101 % of control | [2] 102 % of control | [5] 106 % of control | [3] 98 % of control | [6] 102 % of control | [7] 98 % of control

CC/C(C)=C\CC/C(C)=C\COc1ccccc1C
inactive: [8] 91 % of control | [9] 94 % of control | [4] 89 % of control

Cc1nnn2ccccc12
inactive: dose: 25.0 mg/kg/injection, schedule: Q01DX001 (ip), vehicle: saline 96 % of control | dose: 50.0 mg/kg/injection, schedule: Q01DX001 (ip), vehicle: saline 100 % of control | [10] 100 % of control

C#CCSP(=O)(O)O
inactive: dose: 25.0 mg/kg/injection, schedule: Q01DX009 (ip), vehicle: saline with Tween-80 103 % of control | dose: 50.0 mg/kg/injection, schedule: Q01DX009 (ip), vehicle: saline with Tween-80 103 % of control

O=C1Nc2c(Cl)cccc2C1=O
inactive: dose: 25.0 mg/kg/injection, schedule: Q01DX009 (ip), vehicle: saline 92 % of control | dose: 25.0 mg/kg/injection, schedule: Q04DX003 (ip), vehicle: saline 98 % of control | dose: 50.0 mg/kg/injection, schedule: Q01DX009 (ip), vehicle: saline 94 % of control | dose: 50.0 mg/kg/injection, schedule: Q04DX003 (ip), vehicle: saline 98 % of control | [11] 92 % of control | [12] 96 % of control

C1CCC2OC3(CC2C1)OC1CCCCC1O3 (stereo unspecified)
inactive: dose: 75.0 mg/kg/injection, schedule: Q04DX002 (ip), vehicle: saline + alcohol 101 % of control | dose: 150.0 mg/kg/injection, schedule: Q04DX002 (ip), vehicle: saline + alcohol 116 % of control | dose: 300.0 mg/kg/injection, schedule: Q04DX002 (ip), vehicle: saline + alcohol 105 % of control

CC1CC(=O)Nc2ccccc2N1 (stereo unspecified)
inactive: [2] 97 % of control | [3] 100 % of control | [7] 103 % of control

NCc1ccccc1F
inactive: [11] 100 % of control | [12] 107 % of control | dose: 200.0 mg/kg/injection, schedule: Q01DX009 (ip), vehicle: saline 90 % of control | dose: 200.0 mg/kg/injection, schedule: Q04DX003 (ip), vehicle: saline 100 % of control | dose: 400.0 mg/kg/injection, schedule: Q04DX003 (ip), vehicle: saline 102 % of control

CC(C)=CCC(CC=C(C)C)c1ccncc1 (tested in a mixture with another compound)
inactive: [10] 96 % of control | [13] 98 % of control

CCOC(=O)NC(NC(=O)OCC)C(Cl)Cl
inactive: [10] 101 % of control | [13] 103 % of control | dose: 400.0 mg/kg/injection, schedule: Q01DX001 (ip), vehicle: saline 103 % of control

CC(NC(=O)Nc1ccccc1Cl)c1ccccc1 (stereo unspecified)
inactive: [1] 105 % of control | [5] 105 % of control | [6] 102 % of control

Cc1ccc(C(=O)/C=C(\C(=O)c2ccccc2)c2ccccc2)cc1C
inactive: dose: 100.0 mg/kg/injection, schedule: Q04DX002 (ip), vehicle: Klucel (hydroxypropylcellulose) (HPC) 97 % of control | dose: 200.0 mg/kg/injection, schedule: Q04DX002 (ip), vehicle: Klucel (hydroxypropylcellulose) (HPC) 93 % of control | dose: 400.0 mg/kg/injection, schedule: Q04DX002 (ip), vehicle: Klucel (hydroxypropylcellulose) (HPC) 97 % of control

CC(=O)OC1C(C=C(C)C)OC2CC3(C)C4=C(CCC3(C)C2C1C)C1(C)CCC(O)C(C)(C)C1CC4 (stereo unspecified)
inactive: dose: 20.0 mg/kg/injection, schedule: Q01DX001 (sc), vehicle: steriod suspending solution 104 % of control | dose: 40.0 mg/kg/injection, schedule: Q01DX001 (sc), vehicle: steriod suspending solution 102 % of control | dose: 50.0 mg/kg/injection, schedule: Q01DX001 (sc), vehicle: steriod suspending solution 101 % of control | dose: 80.0 mg/kg/injection, schedule: Q01DX001 (sc), vehicle: steriod suspending solution 102 % of control | dose: 100.0 mg/kg/injection, schedule: Q01DX001 (sc), vehicle: steriod suspending solution 92 % of control | dose: 160.0 mg/kg/injection, schedule: Q01DX001 (sc), vehicle: steriod suspending solution 102 % of control | dose: 200.0 mg/kg/injection, schedule: Q01DX001 (sc), vehicle: steriod suspending solution 97 % of control | dose: 400.0 mg/kg/injection, schedule: Q01DX001 (sc), vehicle: steriod suspending solution 106 % of control

Cc1ncc(CS(=O)(=O)O)c(N)n1
inactive: [1] 92 % of control | [2] 97 % of control | [5] 100 % of control | [3] 98 % of control | [6] 98 % of control | [7] 97 % of control

CC(C)=CCC/C(C)=C/CC/C(C)=C/CC(=O)OCC=C(C)C
inactive: [8] 89 % of control | [9] 99 % of control | [4] 99 % of control

O=C(c1ccco1)C1Cc2ccccc2C1=O (stereo unspecified)
inactive: [1] 95 % of control | dose: 100.0 mg/kg/injection, schedule: Q04DX003 (ip), vehicle: alcohol 109 % of control | [5] 94 % of control | dose: 200.0 mg/kg/injection, schedule: Q04DX003 (ip), vehicle: alcohol 104 % of control | [6] 97 % of control | dose: 400.0 mg/kg/injection, schedule: Q04DX003 (ip), vehicle: alcohol 103 % of control

Cc1ccc([N+](=O)[O-])c2ccccc12
inactive: dose: 100.0 mg/kg/injection, schedule: Q01DX001 (ip), vehicle: saline with Tween-80 103 % of control | dose: 200.0 mg/kg/injection, schedule: Q01DX001 (ip), vehicle: saline with Tween-80 97 % of control | dose: 400.0 mg/kg/injection, schedule: Q01DX001 (ip), vehicle: saline with Tween-80 97 % of control

CCNC(=O)c1cc(NCC)nc(Cl)n1
inactive: [2] 97 % of control | [3] 94 % of control | [7] 101 % of control
